Molecular target: T1, Axl (Homo sapiens, UniProt P30530)
T1 construct: endogenous in cells; host or cells: HeLa cells
T1 sequence (P30530 26-894): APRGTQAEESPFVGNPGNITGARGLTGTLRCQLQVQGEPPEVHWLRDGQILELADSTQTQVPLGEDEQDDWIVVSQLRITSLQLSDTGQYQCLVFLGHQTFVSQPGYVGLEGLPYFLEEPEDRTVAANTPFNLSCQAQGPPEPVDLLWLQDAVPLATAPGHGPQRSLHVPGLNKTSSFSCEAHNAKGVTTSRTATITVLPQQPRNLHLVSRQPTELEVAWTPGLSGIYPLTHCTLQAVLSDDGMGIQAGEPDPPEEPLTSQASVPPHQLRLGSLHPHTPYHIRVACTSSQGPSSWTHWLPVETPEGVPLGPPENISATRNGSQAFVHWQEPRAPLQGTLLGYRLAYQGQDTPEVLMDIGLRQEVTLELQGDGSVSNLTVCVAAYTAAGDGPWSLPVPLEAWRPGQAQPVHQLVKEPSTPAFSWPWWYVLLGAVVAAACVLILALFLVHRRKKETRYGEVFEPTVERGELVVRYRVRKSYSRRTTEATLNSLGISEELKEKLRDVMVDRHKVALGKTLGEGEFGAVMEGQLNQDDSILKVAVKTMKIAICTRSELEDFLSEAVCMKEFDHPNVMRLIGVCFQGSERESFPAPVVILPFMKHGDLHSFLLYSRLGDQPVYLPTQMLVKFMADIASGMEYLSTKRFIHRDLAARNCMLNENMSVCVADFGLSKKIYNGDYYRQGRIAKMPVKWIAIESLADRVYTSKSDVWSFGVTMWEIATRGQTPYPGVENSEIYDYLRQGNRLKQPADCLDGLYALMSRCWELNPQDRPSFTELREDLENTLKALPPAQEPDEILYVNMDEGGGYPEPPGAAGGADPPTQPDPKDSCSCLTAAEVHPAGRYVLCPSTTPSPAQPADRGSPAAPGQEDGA
Assay: Phospho-Akt In-Cell Western Assay (inhibition of Axl activity after Axl-antibody cross-linking)
Format: cell-based
Conditions: Hela cells, phospho-Akt chemiluminescence normalized to relative cell number; compounds of formula (Ia), Table 1; read-out: IC50
Method: The compounds of the invention were tested in the following assay for their ability to inhibit Axl activity.
Phospho-Akt In-Cell Western Assay
• Cell culture plate: 96 well assay plate (Corning 3610), white, clear bottom, tissue-culture treated. • Cells: Hela cells. • Starvation medium: For Axl stimulation: 0.5% FCS (fetal calf serum) in DMEM, plus Axl/Fc (extracellular domain of AXL fused to immunoglobulin Fc region) (R&D, 154-AL) 500 ng/mL. • For EGF (epidermal growth factor) stimulation: 0.5% FCS in DMEM (Dulbecco's modified Eagles medium). • Poly-L-Lysine 0.01% solution (the working solution): […], dilute In PBS (phosphate buffered saline). • Axl antibody cross-linking: • 1st: Mouse anti-Axl (R&D, MAB154). • 2nd: Biotin-SP-conjugated AffiniPure goat anti-mouse IgG (H+ L) (Jackson ImmunoResearch #115-065-003). • Fixing buffer: 4% formaldehyde in PBS. • Wash buffer: 0.1% TritonX-100 in PBS. • Quenching buffer: 3% H2O2, 0.1% Azide in wash buffer, Azide and hydrogen peroxide (H2O2) are added fresh. • Blocking buffer: 5% BSA in TBST (tris buffered saline plus 0.1% Tween 20). • Primary antibody: Rabbit anti-human Phospho-Akt antibody (Cell Signaling 9271): 1×250 diluted in blocking buffer. • Secondary antibody: HRP (horse radish peroxidase)-conjugated Goat anti-Rabbit secondary, stock solution: Jackson ImmunoResearch (Goat anti-Rabbit HRP, #111-035-144) 1:1 diluted in glycerol, store at −20° C. The working solution: 1×2000 dilution of stock in blocking buffer. • Chemiluminescent working solution (Pierce, 37030): SuperSignal ELISA (enzyme linked immunosorbant assay) Pico Chemiluminescent substrate. • Crystal Violet solution: Stock: 2.5% Crystal violet in methanol, filtered and kept at ambient temperature. The working solution: dilute the stock 1:20 with PBS immediately before use. • 10% SDS: working solution: 5% SDS (sodium dodecylsulfate), diluted in PBS Methods: Day 1:
A 96 well TC (tissue culture treated) plate was coated with 10 μg/mL poly-L-Lysine at 37° C. for 30 min, washed twice with PBS, and air-dried for 5 minutes before cells were added. Hela cells were seeded at 10,000 cells/well and the cells were starved in 100 μL starvation medium containing Axl/Fc for 24 hrs.
The cells were pre-treated with test compounds by adding 100 μL of 2× test compound to the starvation medium on the cells. The cells were incubated at 37° C. for 1 hr before stimulation.
The resulting mix was warmed to 37° C. 50 μL of 5×Axl 1st/2nd of antibody cluster was added to the cells and the cells were incubated at 37° C. for 5 min.
After 5 minutes stimulation, the plate was flicked to remove medium and the plate was tapped onto paper towels. Formaldehyde (4.0% in PBS, 100 μL) was added to fix the cells and the cells were incubated at ambient temperature for 20 min without shaking.
The cells were washed with a plate washer buffer to remove the formaldehyde solution. The plate was flicked to removed excess wash buffer and tapped onto paper towels. Quenching buffer (100 μL) was added to each well and the cells were incubated at ambient temperature for 20 minutes without shaking.
The cells were washed with a plate washer buffer to remove the quenching buffer. Blocking buffer (100 μL) was added and the cells were incubated at ambient temperature for at least an hour with gentle shaking.
The cells were washed with a plate washer buffer and diluted primary antibody (50 μL) was added to each well (blocking buffer was added to the negative control wells instead). The plates were incubated overnight at 4° C. with gentle shaking.
The wash buffer was removed, diluted secondary antibody (100 μL) was added, and the cells were incubated at ambient temperature for 1 hour with gentle shaking. During the incubation, the chemiluminescent reagent was brought to ambient temperature.
The secondary antibody was removed by washing the cells 1× with wash buffer, 1× with PBS by plate washer.

SMILES	IC50 [nM]
Nc1nc(Nc2ccc(N3CCC(N4CCCC4)CC3)nc2)nn1-c1cc2c(nn1)-c1ccccc1CCC2 [Compound 29, 1-(6,7-dihydro-5H-benzo[6,7]cyclohepta[1,2-c]pyridazin-3-yl)-N^3-(6-(4-(pyrrolidin-1-yl)piperidin-1-yl)pyridine-3-yl)-1H-1,2,4-triazole-3,5-diamine]	1000 to 10000
CN1CCN(C2CCN(c3ccc(Nc4nc(N)n(-c5cc6c(nn5)-c5ccccc5CCC6)n4)cn3)CC2)CC1 [Compound 30, 1-(6,7-dihydro-5H-benzo[6,7]cyclohepta[1,2-c]pyridazin-3-yl)-N^3-(6-(4-(4-methylpiperazin-1-yl)piperidin-1-yl)pyridine-3-yl)-1H-1,2,4-triazole-3,5-diamine]	< 1000
CN1CCN(C(=O)C2CCc3ncc(Nc4nc(N)n(-c5cc6c(nn5)-c5ccccc5CCC6)n4)cc3C2)CC1 (centres unmarked) [Compound 31, 1-(6,7-dihydro-5H-benzo[6,7]cyclohepta[1,2-c]pyridazin-3-yl)-N^3-(6-(4-methylpiperazin-1-yl)carbonyl-5,6,7,8-tetrahydroquinolin-3-yl)-1H-1,2,4-triazole-3,5-diamine]	< 1000
CCN(CC)C1CCN(c2ccc(Nc3nc(N)n(-c4cc5c(nn4)-c4ccccc4CCC5)n3)cc2F)C1 (centres unmarked) [Compound 32, 1-(6,7-dihydro-5H-benzo[6,7]cyclohepta[1,2-c]pyridazin-3-yl)-N^3-(3-fluoro-4-(3-(diethylamino)pyrrolidin-1-yl)phenyl)-1H-1,2,4-triazole-3,5-diamine]	< 1000
Nc1nc(Nc2ccc(N3CCN(C4CC5CCC4C5)CC3)cc2)nn1-c1cc2c(nn1)-c1ccccc1CCC2 (centres unmarked) [Compound 33, 1-(6,7-dihydro-5H-benzo[6,7]cyclohepta[1,2-c]pyridazin-3-yl)-N^3-(4-(4-(bicyclo[2.2.1]heptan-2-yl)piperazin-1-yl)phenyl)-1H-1,2,4-triazole-3,5-diamine]	1000 to 10000
CCN(CC)C1CCN(c2ccc(Nc3nc(N)n(-c4cc5c(nn4)-c4ccccc4CCC5)n3)cc2F)CC1 [Compound 36, 1-(6,7-dihydro-5H-benzo[6,7]cyclohepta[1,2-c]pyridazin-3-yl)-N^3-(3-fluoro-4-(4-(diethylamino)piperidin-1-yl)phenyl)-1H-1,2,4-triazole-3,5-diamine]	< 1000
Nc1nc(Nc2ccc(N3CCN(C4CC5CCC4C5)CC3)cc2)nn1-c1ncnc2c1CCCc1ccccc1-2 (centres unmarked) [Compound 38, 1-(6,7-dihydro-5H-benzo[6,7]cyclohepta[1,2-d]pyrimidin-4-yl)-N3-(4-(4-(bicyclo[2.2.1]heptan-2-yl)piperazin-1-yl)phenyl)-1H-1,2,4-triazole-3,5-diamine]	< 1000

Second part, the molecule after the results:

IC50 [nM]	SMILES
< 1000	Nc1nc(Nc2ccc(C(=O)N3CCC(N4CCCC4)CC3)cc2)nn1-c1cc2c(nn1)-c1ccccc1CCC2 [Compound 22, 1-(6,7-dihydro-5H-benzo[6,7]cyclohepta[1,2-c]pyridazin-3-yl)-N^3-(4-((4-(pyrrolidin-1-yl)piperidin-1-yl)carbonyl)phenyl)-1H-1,2,4-triazole-3,5-diamine]
< 1000	Nc1nc(Nc2ccc3c(c2)CCC(NC2CC4CCC2C4)CC3)nn1-c1cc2c(nn1)-c1ccccc1CCC2 (centres unmarked) [Compound 23, 1-(6,7-dihydro-5H-benzo[6,7]cyclohepta[1,2-c]pyridazin-3-yl)-N^3-(7-((bicyclo[2.2.1]heptan-2-yl)amino)-6,7,8,9-tetrahydro-5H-benzo[7]annulene-2-yl)-1H-1,2,4-triazole-3,5-diamine]
1000 to 10000	CN(C1CCc2ccc(Nc3nc(N)n(-c4cc5c(nn4)-c4ccccc4CCC5)n3)cc2CC1)C1CC2CCC1C2 (centres unmarked) [Compound 24, 1-(6,7-dihydro-5H-benzo[6,7]cyclohepta[1,2-c]pyridazin-3-yl)-N^3-(7-((bicyclo[2.2.1]heptan-2-yl)(methyl)amino)-6,7,8,9-tetrahydro-5H-benzo[7]annulene-2-yl)-1H-1,2,4-triazole-3,5-diamine]
< 1000	Nc1nc(Nc2ccc(N3CCCN(C4CCCC4)CC3)nc2)nn1-c1cc2c(nn1)-c1ccccc1CCC2 [Compound 25, 1-(6,7-dihydro-5H-benzo[6,7]cyclohepta[1,2-c]pyridazin-3-yl)-N^3-(6-(4-cyclopentyl-1,4-diazepan-1-yl)pyridin-3-yl)-1H-1,2,4-triazole-3,5-diamine]
1000 to 10000	Nc1nc(Nc2cnc3c(c2)CCN(C2CCCC2)CC3)nn1-c1cc2c(nn1)-c1ccccc1CCC2 [Compound 26, 1-(6,7-dihydro-5H-benzo[6,7]cyclohepta[1,2-c]pyridazin-3-yl)-N^3-(7-cyclopentyl-6,7,8,9-tetrahydro-5H-pyrido[3,2-d]azepin-3-yl)-1H-1,2,4-triazole-3,5-diamine]
< 1000	CN1CCN(c2ccc(Nc3nc(N)n(-c4cc5c(nn4)-c4ccccc4CCC5)n3)cn2)CC1 [Compound 27, 1-(6,7-dihydro-5H-benzo[6,7]cyclohepta[1,2-c]pyridazin-3-yl)-N^3-(6-(4-methylpiperazin-1-yl)pyridin-3-yl)-1H-1,2,4-triazole-3,5-diamine]
< 1000	CN1CCc2ncc(Nc3nc(N)n(-c4cc5c(nn4)-c4ccccc4CCC5)n3)cc2C1 [Compound 28, 1-(6,7-dihydro-5H-benzo[6,7]cyclohepta[1,2-c]pyridazin-3-yl)-N^3-(6-methyl-5,6,7,8-tetrahydro-1,6-naphthyridin-3-yl)-1H-1,2,4-triazole-3,5-diamine]
< 1000	CN1CCN(c2ccc(Nc3nc(N)n(-c4cc5c(nn4)-c4ccccc4CCC5)n3)cc2)CC1 [Compound 34, 1-(6,7-dihydro-5H-benzo[6,7]cyclohepta[1,2-c]pyridazin-3-yl)-N^3-(4-(4-methylpiperazin-1-yl)phenyl)-1H-1,2,4-triazole-3,5-diamine]
< 1000	CN1CCN(Cc2ccc(Nc3nc(N)n(-c4cc5c(nn4)-c4ccccc4CCC5)n3)cc2)CC1 [Compound 35, 1-(6,7-dihydro-5H-benzo[6,7]cyclohepta[1,2-c]pyridazin-3-yl)-N^3-(4-((4-methylpiperazin-1-yl)methyl)phenyl)-1H-1,2,4-triazole-3,5-diamine]
< 1000	Nc1nc(Nc2ccc(OCCN3CCCC3)cc2)nn1-c1ncnc2c1CCCc1ccccc1-2 [Compound 37, 1-(6,7-dihydro-5H-benzo[6,7]cyclohepta[1,2-d]pyrimidin-4-yl)-N^3-(4-(2-(pyrrolidin-1-yl)ethoxy)phenyl)-1H-1,2,4-triazole-3,5-diamine]

Reference: US7709482B2, “Polycyclic heteroaryl substituted triazoles useful as Axl inhibitors” (Rigel Pharmaceuticals, Inc., priority 2006, dated 2010)
